Series [1] relates to Cyperus serotinus, Rottb. The experiment in a line: Preemergence weed control under flooded paddy conditions, CYPSE (Flatsedge). Format: in vivo. Particulars: preemergence, rated three to four weeks after treatment.
For series [2], the system named is Cyperus iria. The experiment in a line: Preemergence weed control under flooded paddy conditions, CYPIR (Rice Flatsedge). Format: in vivo. Particulars: preemergence, flooded paddy, rated three to four weeks after treatment.
Series [3] deals with Echinochloa oryzoides (Ard.) Fritsch. The experiment in a line: Preemergence weed control under flooded paddy conditions, ECHORC (Watergrass (Calif.)). Format: in vivo. Particulars: preemergence, flooded paddy, rated three to four weeks after treatment.
The test system of series [4] is Monochoria vaginalis, Presl. In words: Preemergence weed control under flooded paddy conditions, MOOVA (Monochoria). Format: in vivo. Particulars: preemergence, flooded paddy, rated three to four weeks after treatment.
For series [5], the system named is Sagittaria pygmaea, L. The experiment in a line: Preemergence weed control under flooded paddy conditions, SAGPY (Arrowhead (Pygmaea)). Format: in vivo. Particulars: preemergence, flooded paddy, rated three to four weeks after treatment.
Series [6] has as its system Oryza sativa, (L.) Tebonnet. The experiment in a line: Rice tolerance to post-transplant applications under flooded paddy conditions (Example 187), ORYSAT (Rice, Tebonnet). Particulars: rated three to four weeks after treatment.

`Cn1c(C(F)(F)F)cc(=O)n(-c2ccc3snc(C(=O)NS(=O)(=O)/C=C/c4ccccc4)c3c2)c1=O` [Example 501, 1,2-Benzisothiazole-3-carboxamide, 5-[3,6-dihydro-3-methyl-2,6-dioxo-4-(trifluoromethyl)-1(2H)-pyrimidinyl]-N-(styrylsulfonyl)-, (E)-]: the CYPSE herbicidal rating in series [1] (0.0320 kg/ha) was 0.0; in series [1] (0.0620 kg/ha), 0.0; in series [1] (0.1250 kg/ha), 3.0; in series [1] (0.2500 kg/ha) it was 5.0. For the same compound, the CYPIR herbicidal rating is 0.0 in series [2] (0.0320 kg/ha), 2.0 in series [2] (0.0620 kg/ha), 4.0 in series [2] (0.1250 kg/ha) and 6.0 in series [2] (0.2500 kg/ha). For the same compound, the ECHORC herbicidal rating in series [3] (0.0320 kg/ha) came out at 4.0; in series [3] (0.0620 kg/ha) it was 5.0; in series [3] (0.1250 kg/ha) it was 5.0; in series [3] (0.2500 kg/ha), 7.0. Also, the MOOVA herbicidal rating in series [4] (0.0320 kg/ha) came to 6.0; in series [4] (0.0620 kg/ha), 6.0; in series [4] (0.1250 kg/ha), 7.0; in series [4] (0.2500 kg/ha) it was 9.0. The SAGPY herbicidal rating is 2.0 in series [5] (0.0320 kg/ha), 3.0 in series [5] (0.0620 kg/ha), 5.0 in series [5] (0.1250 kg/ha) and 6.0 in series [5] (0.2500 kg/ha). Further, the “ORYSAT herbicidal rating (rice tolerance)” value (“ORYSAT herbicidal rating” below) in series [6] (0.0320 kg/ha) amounted to 0.0; in series [6] (0.0620 kg/ha), 1.0; in series [6] (0.1250 kg/ha) it was 3.0; in series [6] (0.2500 kg/ha), 4.0.

As to `C=CCOc1c(I)cc(C)cc1-c1nsc2ccc(-n3c(=O)cc(C(F)(F)F)n(C)c3=O)cc12` [Example 505, 2,4(1H,3H)-Pyrimidinedione, 3-{3-[6-(allyloxy)-5-iodo-m-tolyl]-1,2-benzisothiazol-5-yl}-1-methyl-6-(trifluoromethyl)-], the CYPSE herbicidal rating in series [1] (0.0620 kg/ha) and in series [1] (0.1250 kg/ha) was 0.0 in each case. Further, the CYPIR herbicidal rating in series [2] (0.0320 kg/ha) was determined as 0.0; in series [2] (0.1250 kg/ha) it was 3.0; in series [2] (0.2500 kg/ha) it was 4.0. In addition, the ECHORC herbicidal rating turned out to be 6.0 in series [3] (0.0320 kg/ha), 6.0 in series [3] (0.0620 kg/ha), 7.0 in series [3] (0.1250 kg/ha) and 9.0 in series [3] (0.2500 kg/ha). Further, the MOOVA herbicidal rating came out at 7.0 in series [4] (0.0320 kg/ha), 7.0 in series [4] (0.0620 kg/ha), 7.0 in series [4] (0.1250 kg/ha) and 8.0 in series [4] (0.2500 kg/ha). The SAGPY herbicidal rating was found to be 0.0 in series [5] (0.0320 kg/ha), 2.0 in series [5] (0.0620 kg/ha), 2.0 in series [5] (0.1250 kg/ha) and 4.0 in series [5] (0.2500 kg/ha). For the same compound, the “ORYSAT herbicidal rating” value is 4.0 in series [6] (0.0320 kg/ha), 4.0 in series [6] (0.0620 kg/ha), 4.0 in series [6] (0.1250 kg/ha) and 6.0 in series [6] (0.2500 kg/ha).

Take `COc1cc(Cl)c(C)cc1-c1nsc2ccc(-n3c(=O)cc(C(F)(F)F)n(C)c3=O)cc12` [Example 506, 2,4(1H,3H)-Pyrimidinedione, 3-[3-(4-chloro-6-methoxy-m-tolyl)-1,2-benzisothiazol-5-yl]-1-methyl-6-(trifluoromethyl)-]: the CYPSE herbicidal rating in series [1] (0.0320 kg/ha) turned out to be 4.5; in series [1] (0.0620 kg/ha) it was 4.5; in series [1] (0.1250 kg/ha) it was 4.5; in series [1] (0.2500 kg/ha), 7.0. The CYPIR herbicidal rating came out at 6.5 in series [2] (0.0320 kg/ha), 8.0 in series [2] (0.0620 kg/ha), 9.0 in series [2] (0.1250 kg/ha) and 9.0 in series [2] (0.2500 kg/ha). Also, the ECHORC herbicidal rating in series [3] (0.0320 kg/ha) is 7.5; in series [3] (0.0620 kg/ha) it was 9.0; in series [3] (0.1250 kg/ha), 9.0; in series [3] (0.2500 kg/ha) it was 9.0. In addition, the MOOVA herbicidal rating came to 8.0 in series [4] (0.0320 kg/ha), 9.0 in series [4] (0.0620 kg/ha), 9.0 in series [4] (0.1250 kg/ha) and 9.0 in series [4] (0.2500 kg/ha). The SAGPY herbicidal rating was determined as 2.5 in series [5] (0.0320 kg/ha), 3.0 in series [5] (0.0620 kg/ha), 3.0 in series [5] (0.1250 kg/ha) and 4.5 in series [5] (0.2500 kg/ha). Further, the “ORYSAT herbicidal rating” value was found to be 1.5 in series [6] (0.0320 kg/ha), 1.5 in series [6] (0.0620 kg/ha), 1.5 in series [6] (0.1250 kg/ha) and 2.0 in series [6] (0.2500 kg/ha).

In series [1] (0.0320 kg/ha), `CN(C)S(=O)(=O)NC(=O)c1nsc2ccc(-n3c(=O)cc(C(F)(F)F)n(C)c3=O)cc12` [Example 507, 1,2-Benzisothiazole-3-carboxamide, 5-[3,6-dihydro-3-methyl-2,6-dioxo-4-(trifluoromethyl)-1(2H)-pyrimidinyl]-N-(dimethylsulfamoyl)-] had a CYPSE herbicidal rating of 0.0. The CYPIR herbicidal rating in series [2] (0.0320 kg/ha) was found to be 5.0; in series [2] (0.0620 kg/ha) it was 6.0; in series [2] (0.1250 kg/ha), 9.0; in series [2] (0.2500 kg/ha), 9.0. Moreover, the ECHORC herbicidal rating in series [3] (0.0320 kg/ha) is listed as 2.0; in series [3] (0.0620 kg/ha) it was 2.0; in series [3] (0.1250 kg/ha), 4.0; in series [3] (0.2500 kg/ha), 7.0. For the same compound, the MOOVA herbicidal rating in series [4] (0.0320 kg/ha), in series [4] (0.0620 kg/ha), in series [4] (0.1250 kg/ha) and in series [4] (0.2500 kg/ha) was 9.0 in each case. The SAGPY herbicidal rating is listed as 7.0 in series [5] (0.0320 kg/ha), 9.0 in series [5] (0.0620 kg/ha), 9.0 in series [5] (0.1250 kg/ha) and 9.0 in series [5] (0.2500 kg/ha). For the same compound, the “ORYSAT herbicidal rating” value in series [6] (0.0320 kg/ha) is on record as 3.0; in series [6] (0.0620 kg/ha), 5.0; in series [6] (0.1250 kg/ha) it was 7.0; in series [6] (0.2500 kg/ha), 5.0.

In the case of `CC(C)NS(=O)(=O)NC(=O)c1nsc2ccc(-n3c(=O)cc(C(F)(F)F)n(C)c3=O)cc12` [Example 508, 1,2-Benzisothiazole-3-carboxamide, 5-[3,6-dihydro-3-methyl-2,6-dioxo-4-(trifluoromethyl)-1(2H)-pyrimidinyl]-N-(isopropylsulfamoyl)-], in series [1] (0.0320 kg/ha), the CYPSE herbicidal rating stood at 0.0. Also, the CYPIR herbicidal rating in series [2] (0.0320 kg/ha) is recorded as 6.0; in series [2] (0.0620 kg/ha) it was 7.0; in series [2] (0.1250 kg/ha), 7.0; in series [2] (0.2500 kg/ha), 9.0. Moreover, the ECHORC herbicidal rating came to 2.0 in series [3] (0.0320 kg/ha), 5.0 in series [3] (0.0620 kg/ha), 6.0 in series [3] (0.1250 kg/ha) and 9.0 in series [3] (0.2500 kg/ha). Besides, the MOOVA herbicidal rating in series [4] (0.0320 kg/ha), in series [4] (0.0620 kg/ha), in series [4] (0.1250 kg/ha) and in series [4] (0.2500 kg/ha) was 9.0 each time. Also, the SAGPY herbicidal rating in series [5] (0.0320 kg/ha) is recorded as 5.0; in series [5] (0.0620 kg/ha), 6.0; in series [5] (0.1250 kg/ha), 9.0; in series [5] (0.2500 kg/ha), 9.0. Besides, the “ORYSAT herbicidal rating” value amounted to 0.0 in series [6] (0.0320 kg/ha), 2.0 in series [6] (0.0620 kg/ha), 5.0 in series [6] (0.1250 kg/ha) and 6.0 in series [6] (0.2500 kg/ha).

For the origin of these results see patent EP0908457B1, “3-(1,2-benzisothiazol- and isoxazol-5-Y1)-2,4(1H,3H)-pyrimidinedione or thione and 3-(1,2-benzisothiazol- and isoxazol-5-y1)-4(3H)-pyrimidinone or thione herbicidal agents” (BASF AKTIENGESELLSCHAFT, priority 1997, dated 1999).
